Experimental data taken from patent US6503935B1, “Imidazoles and related compounds as α1A agonists” (Abbott Laboratories, priority 1998, dated 2003).
Counter-ions that a name gives are not always drawn. Like-named read-outs stand apart in the source and are kept apart here.

Assays:
[1] = target: T1, α1A (rabbit urethra) (Oryctolagus cuniculus, UniProt O02824); assay: Agonist contraction of smooth muscle tissue, rabbit urethra; assay type: cell-based; details: rabbit urethra; read-out: Agonist Tissue Response (pD2) α1A (rab ureth) (converted)
T1 construct: tested for α1A functional activity using rabbit urethra; from tissue; host or cells: rabbit urethra
T1 sequence (O02824 1-466): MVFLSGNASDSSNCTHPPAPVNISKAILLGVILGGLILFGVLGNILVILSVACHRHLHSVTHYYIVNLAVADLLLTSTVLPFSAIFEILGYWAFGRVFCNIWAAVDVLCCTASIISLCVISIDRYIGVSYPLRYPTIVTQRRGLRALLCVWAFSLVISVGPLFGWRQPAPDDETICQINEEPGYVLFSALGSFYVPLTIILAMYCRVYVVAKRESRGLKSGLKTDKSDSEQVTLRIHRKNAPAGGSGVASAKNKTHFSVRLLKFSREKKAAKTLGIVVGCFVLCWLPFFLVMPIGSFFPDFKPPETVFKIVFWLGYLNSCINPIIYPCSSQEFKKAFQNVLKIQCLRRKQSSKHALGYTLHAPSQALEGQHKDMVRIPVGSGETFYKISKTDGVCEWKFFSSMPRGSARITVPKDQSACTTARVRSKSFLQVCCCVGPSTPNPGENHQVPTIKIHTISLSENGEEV
Method: Most of the compounds were tested for α1A functional activity using rabbit urethra as follows. Female New Zealand white rabbits (2.0-3.5 Kg) were sedated with CO2 and decapitated. […] Subsequent experimental conditions were as described above for the other tissues. Agonist concentration response curves were cumulative except for the vas deferens assay in which the transient response made such measurements impractical.

[2] = system: Anesthetized Dogs; assay: Intraurethral pressure (IUP) in anesthetized dogs; assay type: in vivo, dog; details: for Mean Selectivity Ratio MAP ED20/IUP ED5 / Mean IUP ED5 / ED (5 mmHg IUP increase): anesthetized female dogs; for Mean Selectivity Ratio MAP ED20/IUP ED5 / ED (5 mmHg IUP increase): iv; for Mean IUP ED5 / ED (5 mmHg IUP increase): iv dose causing a maximum increase in IUP of 5 mm Hg; for Mean IUP ED5: maleate; for ED (5 mmHg IUP increase): Canis lupus familiaris, read-out: Mean IUP ED5
Text: In vivo Functional Assays-Assessment of Intrurethral Pressure (IUP) and Mean Arterial Pressure (MAP) in Anesthetized Dogs
Female dogs (Marshall Farms, North Rose, N.Y.) greater that 2 years of age and weighing between 12 and 15 kg were used in these studies. At least 2 weeks prior to any agonist dosing, dogs were instrumented for the chronic measurement of arterial blood pressure by implanting a telemetry transducer/transmitter (TA11PA-C40, Data Sciences International, St. Paul, Minn.) into a carotid artery.
On the test day, dogs fasted since the previous afternoon were pre-anesthetized with thiopental sodium 15 mg/kg i.v. (Pentothal™, Abbott) and intubated. Anesthesia was maintained by allowing the dog to spontaneously breathe a mixture of isoflurane (2.5 to 3 volume %) and oxygen delivered by a Narkomed Standard anesthesia system (North American Drager, Telford, Pa.). An Abbocath-T™ i.v. catheter (18-G, Abbott) was inserted into the cephalic vein for the administration of agonists. A telemetry receiver (RA1310, DataSciences) was placed under the head of each dog and was interfaced to a computerized data acquisition system (Modular Instruments Inc.(MI2), Malvern, Pa.) which allowed for the continuous calibrated recording of arterial blood pressure which was electronically filtered to determine its mean value (MAP).
Dogs with chronic telemetry implants anesthetized as described above were placed in dorsal recumbency and a balloon catheter was inserted into the urethral orifice and advanced approximately 15 cm until the tip was well inside the bladder. The balloon was then inflated with 1 ml of room air and the catheter slowly withdrawn until resistance (corresponding to the bladder neck) was evident. The balloon was then deflated and the catheter withdrawn an additional 2 cm. The balloon was then reinflated and its catheter port connected to a Gould Statham P23Dd pressure transducer interfaced to a computerized data acquisition system (Modular Instruments, Inc., Malvern, Pa.) for the measurement of intraurethral pressure. Increasing iv doses of test agonists were administered and the maximum effect of each dose on IUP was recorded. The effect of each dose was allowed to return to baseline before the next dose was given.
From the resulting dose response curve, an ED5 value, for the dose causing a maximum increase in IUP of 5 mm Hg, could be estimated. An ED20 value for the dose causing a maximum increase in MAP of 20 mm Hg could also be estimated. A selectivity ratio of MAP ED20 vs. IUP ED5 was calculated.

[3] = target: T2, α1d (rat receptor expressed in mouse fibroblasts) (Rattus norvegicus, UniProt P23944); assay: Radioligand binding with [3H]-prazosin, α1d; details: rat receptor expressed in mouse fibroblasts, [3H]-prazosin
T2 construct: expressed in transfected cells; host or cells: mouse fibroblasts
T2 sequence (P23944 1-561): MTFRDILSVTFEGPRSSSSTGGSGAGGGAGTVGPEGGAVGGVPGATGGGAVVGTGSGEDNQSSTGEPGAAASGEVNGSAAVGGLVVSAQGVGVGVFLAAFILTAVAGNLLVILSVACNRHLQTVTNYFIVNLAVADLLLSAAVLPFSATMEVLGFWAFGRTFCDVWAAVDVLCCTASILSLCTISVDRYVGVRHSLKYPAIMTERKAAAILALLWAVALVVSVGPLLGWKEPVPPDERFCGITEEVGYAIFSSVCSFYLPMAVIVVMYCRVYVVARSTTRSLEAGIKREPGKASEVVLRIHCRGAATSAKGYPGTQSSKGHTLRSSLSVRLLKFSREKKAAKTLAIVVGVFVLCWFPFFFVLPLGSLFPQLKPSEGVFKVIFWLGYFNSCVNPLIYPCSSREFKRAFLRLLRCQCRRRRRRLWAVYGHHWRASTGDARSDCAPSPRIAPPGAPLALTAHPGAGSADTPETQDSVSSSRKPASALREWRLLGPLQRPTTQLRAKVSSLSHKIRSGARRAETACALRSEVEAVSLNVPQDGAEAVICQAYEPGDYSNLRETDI
Method in brief: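 Radioligand binding with [3H]-prazosin: α1A from rat submaxillary gland; α1b hamster receptor and α1d rat receptor, each expressed in mouse fibroblasts.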

[4] = read-out: Radioligand Binding Ki α1d (Rat)
[5] = Radioligand Binding Ki α1d (Rat)

Row | Compound | EC50 [1] [nM] | Mean Selectivity Ratio MAP ED20/IUP ED5 [2] | Ki [3, 4] [nM] | Mean IUP ED5 [2] [nmol/kg] | ED (5 mmHg IUP increase) [2] [µmol/kg] | Ki [3, 5] [nM] | selectivity for increasing intraurethral pressure over arterial pressure as compared to N-(3-(1H-imidazol-4-ylmethyl)-2-methylphenyl]methanesulfonamide) ([2]; in vivo, dogs) [times]
1 | COc1ccc(NS(C)(=O)=O)c2c1C(c1c[nH]cn1)CCC2 (stereo not shown) [Example 26, N-[5,6,7,8-tetrahydro-(1H-imidazol-4-yl)-4-methoxyy-1-naphthalenyl]methanesulfonamide, maleate] | 15500 | 2.6 |  |  |  |  | 
2 | CCS(=O)(=O)Nc1cccc2c1CCCC2c1c[nH]cn1.O=C(O)/C=C\C(=O)O (single isomer, unassigned; (+)) [Example 33, (+)-N-[5-(1H-imidazol-4-yl)-5,6,7,8-tetrahydro-1-naphthalenyl]ethanesulfonamide, maleate] | 170 | 3.3 | 1080 | 10.5 |  |  | 
3 | CN(c1cccc2c1CCCC2c1c[nH]cn1)S(C)(=O)=O (stereo not shown) [Example 15, N-[5,6,7,8-tetrahydro-5-(1H-imidazol-4-yl)-1-naphthalenyl]-N-methylmethanesulfonmamide, maleate] | 692 | 2.5 | 701 |  |  |  | 
4 | CS(=O)(=O)Nc1ccc(F)c2c1CCCC2c1c[nH]cn1.O=C(O)/C=C\C(=O)O (stereo not shown) [Example 44, N-[4-fluoro-5-(1H-imidazol-4-yl)-5,6,7,8-tetrahydro-1-naphthalenyl]methanesulfonamide, maleate] | 4900 | 1.0 | 3050 |  | 0.844 |  | 
5 | CCS(=O)(=O)Nc1cccc2c1CCCC2c1c[nH]cn1.O=C(O)/C=C\C(=O)O (single isomer, unassigned; (-)) [Example 34, (−)-N-[5-(1H-imidazol-4-yl)-5,6,7,8-tetrahydro-1-naphthalenyl]ethanesulfonamide, maleate] | 28200 |  | 842 | >1000 |  |  | 
6 | CCS(=O)(=O)Nc1cccc(Cc2c[nH]cn2)c1C.O=C(O)/C=C\C(=O)O [Example 29, N-[3-(1H-imidazol-4-ylmethyl)-2-methylphenyl]ethanesulfonamide, maleate] |  | 5.6 |  |  |  | 678 | > 3
7 | O=C(Nc1cccc2c1CCCC2c1c[nH]cn1)C(F)(F)F (stereo not shown) [Example 17, 2,2,2-trifluoro-N-[5-(1H-imidazol-4-yl)-5,6,7,8-tetahydro-1-naphthalenyl]acetamide, maleate] | 525 | 1.1 | 3300 |  |  |  | 
8 | CC(c1cccc(NS(C)(=O)=O)c1)c1c[nH]cn1.O=C(O)/C=C\C(=O)O (stereo not shown) [Example 31, N-[3-[1-(1H-imidazol-4-yl)ethyl]phenyl]methanesulfonamide, maleate] | 4170 | 3.4 |  |  |  | 685 | 
9 | Cc1c(Cc2c[nH]cn2)cccc1NS(C)(=O)=O.O=C(O)/C=C\C(=O)O [Example 28, N-[3-(1H-imidazol-4-ylmethyl)-2-methylphenyl]methanesulfonamide, maleate] | 5620 | 2.1 |  |  |  | 815 | 
10 | C=C(c1cccc(NS(=O)(=O)CC)c1)c1c[nH]cn1 [Example 45, N-{3-[1-(1H-imidazol-4-yl)vinyl]phenyly}ethanesulfonamide, maleate] | 2000 | 2.6 |  |  |  | 971 | 
11 | CCS(=O)(=O)Nc1cccc2c1CCCC2c1c[nH]cn1.O=C(O)/C=C\C(=O)O (stereo not shown) [Example 12, N-[5-(1H-imidazol-4-yl)-5,6,7,8-tetrahydro-1-naphthalenyl]ethanesulfonamide, maleate] | 631 | 7.6 | 1670 |  | 0.0107 |  | 
12 | CS(=O)(=O)Nc1cccc(Cc2c[nH]cn2)c1.O=C(O)/C=C\C(=O)O [Example 21, N-[3-(1H-imidazol-4-ylmethyl)phenyl]methanesulfonamide, maleate] | 1860 |  |  |  |  | 212 | 
